Tests used:
[1] = system: Human immunodeficiency virus; assay: Antiviral activity against wild type HIV; assay type: functional, organism-based; settings: Human immunodeficiency virus 1
[2] = Inhibition of wild type HIV reverse transcriptase; set-up: species or system Human immunodeficiency virus
[3] = Cytotoxicity against human MT2 cells; assay type: cell-based
[4] = system: Human immunodeficiency virus; assay: Antiviral activity against HIV with reverse transcriptase K65R mutation in MT-2 cells assessed as fold resistance relative to wild type
[5] = system: Human immunodeficiency virus; assay: Antiviral activity against HIV with reverse transcriptase M184V mutation in MT-2 cells assessed as fold resistance relative to wild type
[6] = system: Human immunodeficiency virus; assay: Antiviral activity against HIV with reverse transcriptase 6TAMs mutation in MT-2 cells assessed as fold resistance relative to wild type

SMILES | EC50 [1] [µM] | IC50 [2] [µM] | CC50 [3] [µM] | Activity [4] | Activity [5] | Activity [6]
O=c1ccn([C@H]2CC[C@@H](OCP(=O)(O)O)O2)c(=O)[nH]1 | > 200 | – | – | – | – | –
Nc1ncnc2c1ncn2[C@H]1CC[C@@H](OCP(=O)(O)OP(=O)(O)OP(=O)(O)O)O1 | – | 0.26 | – | – | – | –
O=c1ccn([C@H]2C=C[C@@H](OCP(=O)(O)OP(=O)(O)OP(=O)(O)O)O2)c(=O)[nH]1 | – | 0.55 | – | – | – | –
O=c1ccn([C@H]2C=C[C@@H](OCP(=O)(O)O)O2)c(=O)[nH]1 | > 200 | 5.7 | > 1000 | – | – | –
Nc1ncnc2c1ncn2[C@H]1C=C[C@@H](OCP(=O)(O)O)O1 | 2.1 | 0.6 | > 1000 | 2.9 | 0.9 | 2.9
C[C@H](Cn1cnc2c(N)ncnc21)OCP(=O)(O)O [TENOFOVIR ANHYDROUS] | 3.6 | 0.38 | > 1000 | 4.3 | 0.7 | 8.8
Cc1cn([C@H]2C=C[C@@H](OCP(=O)(O)O)O2)c(=O)[nH]c1=O | 26 | 0.39 | > 1000 | 5.2 | 1.1 | 12.7
Nc1nc(NC2CC2)c2ncn([C@H]3C=C[C@@H](CO)C3)c2n1 (single isomer, unassigned) [ABACAVIR] | 0.32 | 0.13 | 190 | 3.8 | 7.1 | 5.7
O=c1[nH]c(=O)n([C@H]2C=C[C@@H](OCP(=O)(O)O)O2)cc1Cl | 28.5 | – | 413 | 6.7 | 0.8 | >10
Nc1ncnc2c1ncn2[C@H]1CO[C@@H](OCP(=O)(O)O)C1 | 9.5 | 0.32 | 863 | 2.2 | 11 | 3.2
O=c1[nH]c(=O)n([C@H]2C=C[C@@H](OCP(=O)(O)O)O2)cc1Br | 15 | – | 935 | 7.5 | 1.3 | >10
Nc1ccn([C@H]2C=C[C@@H](OCP(=O)(O)O)O2)c(=O)n1 | > 200 | – | – | – | – | –
Nc1ncnc2c1ncn2[C@H]1C=C[C@@H](OCP(=O)(O)OP(=O)(O)OP(=O)(O)O)O1 | – | 0.14 | – | – | – | –
O=c1[nH]c(=O)n([C@H]2C=C[C@@H](OCP(=O)(O)O)O2)cc1F | > 200 | – | – | – | – | –
Cc1cn([C@H]2CC[C@@H](OCP(=O)(O)O)O2)c(=O)[nH]c1=O | > 200 | 5.4 | – | – | – | –
Nc1ncnc2c1ncn2[C@H]1CC[C@@H](OCP(=O)(O)O)O1 | 12 | 4.1 | > 1000 | 4.9 | 1.1 | 3.4
Nc1ncnc2c1ncn2[C@H]1C=C[C@@H](OCP(=O)(O)O)C1 | 51.7 | – | – | – | – | –
Cc1cn([C@H]2C=C[C@@H](OCP(=O)(O)OP(=O)(O)OP(=O)(O)O)O2)c(=O)[nH]c1=O | – | 0.06 | – | – | – | –
